The source of these data is article PMC9900472 (ACS chemical biology, 2022).

Assay [1] addresses B. malayi iPGM (Brugia malayi, UniProt Q4VWF8). The assay can be described thus: luminescent coupled-enzyme ATP-quantifying iPGM assay, B. malayi iPGM. Type of assay: biochemical.
Assay [2] deals with T1, H. pylori iPGM (Helicobacter pylori, UniProt B5Z7X6).
T1 sequence (B5Z7X6 1-491): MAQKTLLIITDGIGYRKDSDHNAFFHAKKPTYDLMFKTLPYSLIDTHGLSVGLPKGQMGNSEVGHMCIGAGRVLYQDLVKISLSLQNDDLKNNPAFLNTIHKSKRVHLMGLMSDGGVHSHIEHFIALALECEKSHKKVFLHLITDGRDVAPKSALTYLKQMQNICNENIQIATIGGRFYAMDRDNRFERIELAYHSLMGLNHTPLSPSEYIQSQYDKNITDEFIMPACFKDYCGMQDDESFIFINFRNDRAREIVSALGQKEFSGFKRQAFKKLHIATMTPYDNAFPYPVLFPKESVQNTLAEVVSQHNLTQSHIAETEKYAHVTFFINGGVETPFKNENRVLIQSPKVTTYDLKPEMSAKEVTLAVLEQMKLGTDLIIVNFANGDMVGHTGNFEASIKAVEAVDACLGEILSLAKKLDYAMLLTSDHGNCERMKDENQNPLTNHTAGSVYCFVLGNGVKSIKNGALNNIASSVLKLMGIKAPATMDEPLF
In words: biochemical.

For assay [3], the target named is T2, W. bancrofti iPGM (Wuchereria bancrofti, UniProt B1P0R4).
T2 sequence (B1P0R4 1-515): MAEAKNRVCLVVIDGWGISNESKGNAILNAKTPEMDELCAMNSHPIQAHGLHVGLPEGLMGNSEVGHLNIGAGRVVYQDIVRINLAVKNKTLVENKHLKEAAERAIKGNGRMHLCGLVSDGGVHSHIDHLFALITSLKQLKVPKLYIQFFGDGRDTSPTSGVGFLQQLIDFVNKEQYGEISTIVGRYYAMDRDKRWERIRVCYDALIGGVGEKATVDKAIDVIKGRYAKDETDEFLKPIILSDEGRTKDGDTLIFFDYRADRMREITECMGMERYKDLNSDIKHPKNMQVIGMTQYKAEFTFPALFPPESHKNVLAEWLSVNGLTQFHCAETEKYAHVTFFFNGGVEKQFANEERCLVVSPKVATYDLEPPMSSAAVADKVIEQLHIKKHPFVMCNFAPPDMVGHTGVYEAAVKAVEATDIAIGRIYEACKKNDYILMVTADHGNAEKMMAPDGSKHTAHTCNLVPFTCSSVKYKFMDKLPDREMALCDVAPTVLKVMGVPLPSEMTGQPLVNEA
In words: biochemical.

Assay [4] has as its target E. coli iPGM (Escherichia coli, UniProt P37689). The assay can be described thus: luminescent coupled-enzyme ATP-quantifying iPGM assay, E. coli iPGM. Type of assay: biochemical.
In assay [5] the target is T3, C. elegans iPGM (Caenorhabditis elegans, UniProt G5EFZ1).
T3 sequence (G5EFZ1 1-539): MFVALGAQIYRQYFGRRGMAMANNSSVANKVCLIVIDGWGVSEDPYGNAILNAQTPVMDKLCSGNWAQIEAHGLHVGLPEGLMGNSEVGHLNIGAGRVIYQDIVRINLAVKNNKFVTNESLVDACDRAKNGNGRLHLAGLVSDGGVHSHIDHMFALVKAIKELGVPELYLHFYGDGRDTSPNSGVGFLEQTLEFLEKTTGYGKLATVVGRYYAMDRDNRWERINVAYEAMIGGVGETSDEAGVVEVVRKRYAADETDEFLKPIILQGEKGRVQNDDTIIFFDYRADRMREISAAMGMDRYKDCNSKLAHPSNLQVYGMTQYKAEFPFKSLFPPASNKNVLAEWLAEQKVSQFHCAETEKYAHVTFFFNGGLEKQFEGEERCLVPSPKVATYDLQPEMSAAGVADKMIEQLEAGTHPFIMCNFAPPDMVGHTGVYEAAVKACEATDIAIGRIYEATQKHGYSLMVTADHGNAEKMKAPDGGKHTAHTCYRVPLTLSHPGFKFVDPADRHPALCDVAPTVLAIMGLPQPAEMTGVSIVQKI
In words: luminescent coupled-enzyme ATP-quantifying iPGM assay, C. elegans iPGM. Type of assay: biochemical.

E. coli iPGM, sequence (P37689 whole entry): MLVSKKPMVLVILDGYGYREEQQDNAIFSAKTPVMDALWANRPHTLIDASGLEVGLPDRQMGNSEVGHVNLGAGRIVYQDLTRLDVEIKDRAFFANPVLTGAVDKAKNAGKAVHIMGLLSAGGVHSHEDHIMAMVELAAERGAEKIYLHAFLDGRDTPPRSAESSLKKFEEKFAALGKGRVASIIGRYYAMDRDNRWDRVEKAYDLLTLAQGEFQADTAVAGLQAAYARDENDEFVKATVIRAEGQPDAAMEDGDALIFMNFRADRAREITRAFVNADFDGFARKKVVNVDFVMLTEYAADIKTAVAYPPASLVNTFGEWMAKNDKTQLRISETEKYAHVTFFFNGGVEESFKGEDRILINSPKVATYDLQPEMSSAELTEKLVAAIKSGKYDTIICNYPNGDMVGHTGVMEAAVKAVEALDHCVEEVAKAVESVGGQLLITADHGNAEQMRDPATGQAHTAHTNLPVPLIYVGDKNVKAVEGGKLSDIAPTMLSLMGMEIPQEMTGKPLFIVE
B. malayi iPGM, sequence (Q4VWF8 whole entry): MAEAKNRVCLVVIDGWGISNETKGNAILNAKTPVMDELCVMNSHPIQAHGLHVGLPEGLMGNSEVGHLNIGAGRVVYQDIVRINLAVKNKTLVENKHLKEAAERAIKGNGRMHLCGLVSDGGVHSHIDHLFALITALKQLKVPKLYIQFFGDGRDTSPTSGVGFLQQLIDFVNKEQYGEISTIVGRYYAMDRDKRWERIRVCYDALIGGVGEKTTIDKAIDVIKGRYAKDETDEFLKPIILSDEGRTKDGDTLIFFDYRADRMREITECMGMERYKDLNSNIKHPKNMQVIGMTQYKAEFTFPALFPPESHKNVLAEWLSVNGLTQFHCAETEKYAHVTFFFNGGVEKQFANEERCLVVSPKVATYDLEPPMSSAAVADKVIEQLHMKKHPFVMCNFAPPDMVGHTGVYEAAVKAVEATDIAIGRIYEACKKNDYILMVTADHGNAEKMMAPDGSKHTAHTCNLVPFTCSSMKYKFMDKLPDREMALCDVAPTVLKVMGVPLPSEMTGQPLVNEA

On to `CC(C)C[C@H](NC(=O)[C@H](Cc1ccc(O)cc1)NC(=O)[C@@H]1CSCC(=O)N[C@H](Cc2ccc(O)cc2)C(=O)N[C@@H](CC(=O)O)C(=O)N[C@@H](Cc2ccc(O)cc2)C(=O)N2CCC[C@H]2C(=O)NCC(=O)N[C@@H](CC(=O)O)C(=O)N[C@@H](Cc2ccc(O)cc2)C(=O)N1)C(=O)N[C@@H](Cc1ccc(O)cc1)C(=O)NCC(=O)N[C@H](C(=O)N[C@@H](CS)C(N)=O)[C@@H](C)O` [Ce-2], for which the AC50 (as a rule, the midpoint of the concentration-response curve, whichever way the signal moves) was 2.69 nM in assay [1]; 3630 nM in assay [2]; 2.34 nM in assay [3]; 316 nM in assay [4]; 2.45 nM in assay [5].
